Columns and labels:
fatigue rats [1] = experiment: Weighted swimming test in water immersion central fatigue model rats, administration in drinking water; assay type: in vivo, SD rats; details: 0.25% (W/V) in drinking water (370 mg/kg/day), oral; 3 days water immersion; swim on the 4th day with weight 8% of body weight; vs distilled water control
Experimental: A test sample or distilled water used as a control was administered in the form of drinking water to SD rats (male, 6-week-old, n=3 to 6). Thereafter, the rats were bred for 3 days in a cage wherein the water depth had been set at 1.5 cm (23±1° C.) (1 rat/1 cage), so as to produce fatigue rats. It is to be noted that the water in such a cage was exchanged with fresh one every day. At the same time, rats, which had been bred on a common bedding, were defined as normal rats. After completion of the breeding for 3 days, a weight that was 8% of the body weight was attached to the tail portion of each rat on the 4th day, and the rat was then allowed to swim in water of 23° C. The time required until the nose was submerged in water for 10 or more seconds was measured, and the thus measured time was evaluated as a fatigue level caused by central fatigue (chronic fatigue). This model has been known as a central fatigue model (Non-Patent Document 1 and Neurosci. Lett. 352 (2003), 159-162). For the test group, 0.25% (W/V) chlorogenic acid (370 mg/kg/day) was used. For the control group, distilled water was used.

fatigue rats [2] = experiment: Weighted swimming test in water immersion load fatigue rats (stress fatigue), intraperitoneal administration; assay type: in vivo, SD rats; details: CQA 300 mg/kg intraperitoneally once a day for 5 days; swim on the 6th day with weight 8% of body weight, water of 23° C.; vs normal saline control
Experimental: SD rats (male, 7-week-old, n=4 to 12) were bred for 5 days in a cage wherein the water depth had been set at 1.5 cm (23±1° C.) (1 rat/1 cage), so as to produce fatigue rats. It is to be noted that the water in such a cage was exchanged with fresh one every day. From the first day, a test sample or a normal saline solution used as a control was intraperitoneally administered to the rats once a day. At the same time, rats, which had been bred on a common bedding, were defined as normal rats, and from the first day, a normal saline solution was intraperitoneally administered to them once a day. After completion of the breeding for 5 days, a weight that was 8% of the body weight was attached to the tail portion of each rat on the 6th day, and the rat was then allowed to swim in water of 23° C. The time required until the nose was submerged in water for 10 or more seconds was measured, and the thus measured time was evaluated as a fatigue level caused by stress. For the test group, chlorogenic acid (CQA 300 mg/kg) was used. For the control group, a normal saline solution was used.

O=C(/C=C/c1ccc(O)c(O)c1)O[C@@H]1C[C@](O)(C(=O)O)C[C@@H](O)[C@H]1O [chlorogenic acid]
fatigue level caused by central fatigue (chronic fatigue) (swimming time until the nose was submerged in water for 10 or more seconds) (fatigue rats [1]): attenuated | fatigue level caused by stress (swimming time until the nose was submerged in water for 10 or more seconds) (fatigue rats [2]): attenuated

Reference: patent US20100298430A1, “PROPHYLACTIC ANTISTRESS AGENT” (KAO CORPORATION, priority 2005, published 2010)
